From paper PMC8973439, “From Fish Scale Gelatin to Tyrosinase Inhibitor: A Novel Peptides Screening Approach Application” (Frontiers in Nutrition, 2022)
Like-named read-outs stand apart in the source and are kept apart here. Each block holds one compound with its values, some of them ahead of it. Where a SMILES comes first, the peptide text is derived from it.

What was measured:
[1] = tested on: B16F10 melanoma cells (melanin content); assay: Melanin content in B16F10 melanoma cells; format: cell-based, murine; conditions: positive control, 0.75 mg/ml; NaOH/10% DMSO lysis, 405 nm
Description: (§1) B16F10 cells were kept in Dulbecco's modified eagle medium supplemented with 10% heat-inactivated fetal bovine serum, and cells were cultured at 37°C in an atmosphere with 5% CO2. These cells were then used for cell viability, tyrosinase inhibition and melanin content determination.
After cultivated according to the instructions above, the cells were digested with 0.25% trypsin when reached to 80–90% confluence to make a single cell suspension. Fresh culture medium was used to adjust the cell concentration to 1 × 10^6 cells/ml, 2 ml of which was inoculated in a 6-well culture plate for incubation overnight. When the cells adhered, the supernatant was discarded and the cells were rinsed with PBS once. 2 ml fresh culture medium was added again for incubation under CO2 for 48 h. The supernatant was discarded after the incubation, and the adhered cells were rinsed with PBS and then dispersed with trypsin. The dispersed cells were collected and centrifuged at 1,500 r/min for 10 min. […] Measured the optical density value of each well at 405 nm with a microplate reader, and calculated the melanin content ([32]). (3) Melanin content/%=(As-Ab)/(Ac-Ab)×100% where, As is the absorbance of experimental wells; Ac is the absorbance of control well; Ab is the absorbance of blank wells.

[2] = tested on: tyrosinase in B16F10 cells; assay: Tyrosinase activity in B16F10 melanoma cells; format: cell-based, murine; conditions: positive control, 0.75 mg/ml, 24 h; lysate with 10 mM L-DOPA, 30 min 37°C, 450 nm
Description: The tyrosinase inhibition was determined according to the method of Ullah et al. ([31]). B16F10 cells were seeded into 96-well plates at a rate of 5 × 10^4 cells per well and incubated at 37°C in a humid atmosphere of 5% CO2 for 24 h. […] (0, 0.1, 0.2, 0.4, 0.8 and 1.6 mg/ml), and re-incubated for 24 h under the same conditions. The cells were then washed with PBS buffer, lysed with lysate buffer [100 μl containing 50 mM PBS, 0.1 mM phenylmethanesulfonyl fluoride (5 μl) and Triton X-100 (5 μl)], and frozen at −80°C for 30 min. The cell lysate was then centrifuged at 12,000 rpm at 4°C for 30 min and transferred to a 96-well plate with a total volume of 100 μl (80 μl lysate supernatant and 20 μl 10 mM L-DOPA) and incubated for 30 min at 37°C. The absorbance was measured at 450 nm using an enzyme-linked immunosorbent assay (ELISA) reader.

[3] = target: Mushroom tyrosinase (Agaricus bisporus, UniProt C7FF04); assay: Tyrosinase inhibitory activity (L-DOPA oxidation, 475 nm); format: biochemical
Description: The determination of the tyrosinase inhibitory activity was made according to Uysal et al. ([26]). Sample solutions (50 μl) with the appropriate concentration were reacted with 50 μl of 200 mM pH 6.8 phosphate buffer saline (PBS) solution and 50 μl of tyrosinase at room temperature for 15 mins. Then, 50 μl of 2.5 mM L-DOPA was added, and allowed to react at 30°C for 10 min. The absorbance (As) at 475 nm was finally measured with a microplate reader (Synergy H1, BioTek Co., Ltd., USA). Taking the reaction system without enzyme and sample as a blank.
4 ml of hydrolysis product (5 mg/ml) and 2 ml of mushroom tyrosinase (10 U/ml) were incubated for 1 h at 37°C. Inactivated mushroom tyrosinase (heated in a boiling water bath for 10 mins) was also prepared as a blank group.

[4] = target: tyrosinase; conditions: cited from earlier work
Text: Studies have shown that peptides with lower MW tend to have higher functional activity ([38]). Therefore, peptides with MW ≤ 1,000 Da were selected from the 52 peptides obtained, and 16 peptides (shown in Table 3) were obtained for subsequent analysis. Section Amino Acid Composition and Molecular Weight Distribution of Hydrolysates introduced some amino acids that contribute to tyrosinase inhibition, such as Val, Ala, Leu, Ile, Arg, Phe, Cys, Ser, and Thr. According to the screening method from previous study ([10]), 16 peptides in Table 3 were counted for their tyrosinase inhibitory contribut ...

[5] = tested on: B16F10 melanoma cells; assay: Cell viability of B16F10 melanoma cells (CCK-8); format: cell-based, murine; conditions: 24 h
Description: as §1
The previously described cell counting kit-8 (CCK-8) assay was used to assess cell viability ([30]). The cells were incubated in a 96-well plate with 5 × 10^4 cells per well in a 5% humid CO2 atmosphere at 37°C for 24 h. […] The cells were re-incubated for 24 h under the same conditions. The cells were then treated with the CCK-8 reagent and incubated at 37°C for 1 h. Cell viability is calculated by reading the absorbance value at 450 nm. The calculation formula is shown below. (2) Cell viability/%=(As-Ab)/(Ac-Ab)×100% where, As is the absorbance of experimental wells (medium containing cells, CCK-8, sample to be tested); Ac is the absorbance of control well (medium containing cells, CCK-8, no sample to be tested); Ab is the absorbance of blank wells (medium without cells and samples to be tested, CCK-8).

[6] = synthetic peptides (purity more than 95%), mushroom tyrosinase, 2.5 mM L-DOPA, 200 mM pH 6.8 PBS, preincubation 15 min room temperature, 10 min 30°C, 475 nm, three parallel tests, read-out: IC50 (tyrosinase inhibition)

Sequence of Mushroom tyrosinase (C7FF04 1-392): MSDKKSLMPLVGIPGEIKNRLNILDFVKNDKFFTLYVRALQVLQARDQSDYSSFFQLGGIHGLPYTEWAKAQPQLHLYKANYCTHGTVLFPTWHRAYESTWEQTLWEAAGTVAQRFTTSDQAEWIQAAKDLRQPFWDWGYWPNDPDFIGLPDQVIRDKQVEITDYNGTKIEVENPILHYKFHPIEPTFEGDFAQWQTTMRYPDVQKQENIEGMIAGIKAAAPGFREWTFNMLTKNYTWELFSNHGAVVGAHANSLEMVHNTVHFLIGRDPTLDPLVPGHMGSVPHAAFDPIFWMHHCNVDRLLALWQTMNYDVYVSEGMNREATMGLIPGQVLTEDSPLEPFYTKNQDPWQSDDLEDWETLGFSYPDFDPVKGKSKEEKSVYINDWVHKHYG

Compound: O=c1cc(CO)occ1O [kojic acid]
Reduction of melanin content [1]: 55.4% | Tyrosinase inhibition rate in B16F10 cells [2]: 28.34%

IC50 [3, 6]: 3.86 mM
Compound: CC(C)C[C@H](NC(=O)[C@@H](NC(=O)[C@H](CC(C)C)NC(=O)[C@H](CCC(N)=O)NC(=O)[C@@H](N)Cc1c[nH]c2ccccc12)[C@@H](C)O)C(=O)O [WQLTL] (H-WQLTL-OH)

Compound: RHAKF [from Chinese quince seed protein hydrolysate]
IC50 (tyrosinase inhibition) ([4]; from Chinese quince seed protein hydrolysate): 1150 µg/mL

IC50 [3, 6]: 5.81 mM
Compound: CC(C)[C@H](NC(=O)[C@H](CCC(=O)O)NC(=O)[C@H](CO)NC(=O)[C@@H](N)Cc1c[nH]c2ccccc12)C(=O)N[C@@H](Cc1ccccc1)C(=O)O [WSEVF] (H-WSEVF-OH)

Compound: CC(C)C[C@H](NC(=O)[C@H](Cc1ccccc1)NC(=O)CNC(=O)[C@H](CC(C)C)NC(=O)[C@@H](N)CC(=O)O)C(=O)N[C@@H](C)C(=O)N[C@@H](CCCNC(=N)N)C(=O)NCC(=O)N[C@@H](Cc1ccccc1)C(=O)O (H-DLGFLARGF-OH)
Cell viability, concentration dependence ([5]; 0–1.6 mg/ml, CCK-8): cell survival rate gradually decreased | Cell viability ([5]; tested concentration range 0–1.6 mg/ml, CCK-8, 450 nm): > 50% | IC50 [3]: 3.09 mM

Compound: Phe-Pro-Tyr [FPY, from defatted walnut (Juglans regia L.) meal hydrolysate]
IC50 ([4]; from defatted walnut (Juglans regia L.) meal hydrolysate, read-out: IC50 (tyrosinase inhibition)): 3.22 ± 0.22 mM

IC50 [3, 6]: 4 mM
Compound: CC(C)C[C@H](NC(=O)[C@H](CC(=O)O)NC(=O)[C@@H](N)Cc1ccccc1)C(=O)NCC(=O)N[C@@H](Cc1ccccc1)C(=O)N[C@@H](CC(C)C)C(=O)N[C@@H](C)C(=O)N[C@@H](CCCNC(=N)N)C(=O)O (H-FDLGFLAR-OH)
